Measured values from ChEMBL document CHEMBL1201862, “PubChem BioAssay data set” (2004).
Values belong to the molecule of their own block, whether it stands above or below them. Calls of active or inactive are those of the source.

How the values were obtained:
[1] = biological target: COUP transcription factor 2 (Homo sapiens, UniProt P24468); experiment: Luminescence-based cell-based high throughput dose response assay to identify inhibitors of COUP-TFII (NR2F2).; format: functional;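 also: HEK293 cells transiently cotransfected with COUP-TFII expression vector and reporter; luciferase reporter luminescence driven by COUP-TFII from the pX2-168 reporter plasmid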
[2] = Luminescence Cell-Based Dose Confirmation HTS to Identify Inhibitors of Platelet Dense Granule Release. [Related pubchem assays: 1663 (Primary HTS), 1678 (Summary of Project)]; format: functional
[3] = Luminescence-based counterscreen assay for KLF5 inhibitors: dose response cell-based high throughput screening assay to identify cytotoxic compounds using the IEC-6 intestinal epithelial cell line. [Related pubchem assays: 1700 (Primary screen.), 1834 (Confirmation screen.), 1858 (Summary AID.), 1905 (Counterscreen.)]; format: functional
Paired box protein Pax-8 = Paired box protein Pax-8 (Homo sapiens, UniProt Q06710); experiment: PAX8 transcriptional activity inhibition in RMG-I – RMG-I cells, luciferase, cherry-pick, dose response (AID 687027); format: functional, cell-based;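 also: luciferase reporter driven by Pax8 target thyroperoxidase promoter measured by SteadyGlo luminescence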
[4] = biological target: Luciferin 4-monooxygenase (Photinus pyralis, UniProt P08659); experiment: inhibition of purified Photinus pyralis luciferase – biochemical, luminescence, dose response (AID 1891)
[5] = fluconazole-exposed Candida albicans growth modulators – fluorescence, retest, confirmation (AID 2467); format: functional, cell-based
[6] = biological target: Voltage-gated inwardly rectifying potassium channel KCNH2 (Homo sapiens, UniProt Q12809); experiment: concentration-dependent hERG rescue from blockers – cell-based, thallium flux, dose response (AID 2121); format: ADME
[7] = NIH-3T3 fibroblast cytotoxicity, dose response, cytotoxicity control, cell-based, fluorescence, Alamar Blue, secondary assay (AID 2327); format: functional;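 also: NIH-3T3 mouse fibroblasts cultured with fluconazole at 8 µg/mL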
[8] = HGIII-sPLA2 enzyme inhibition potency – biochemical, QFRET, IC50, dose response (AID 743457);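 also: green fluorescence rise as the enzyme cleaves BODIPY PC-A2 in liposomes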
Beta-galactosidase = Beta-galactosidase (Escherichia coli, UniProt Q8VNN2); experiment: detection-enzyme interference by beta-gal modulators – biochemical, E. coli enzyme, set 3, artefact control for CCR6 antagonist project, dose response (AID 504712); format: functional
[9] = HPDE-C7 pancreatic duct cell viability loss – fluorescence, HTS (AID 430); format: functional, cell-based; conditions: Homo sapiens
[10] = viability loss of HPDE-C7K cells – cell-based, fluorescence, HTS, primary screen (AID 431); format: functional; conditions: Homo sapiens
[11] = viability inhibitors of stage V gametocytes – luminescence, dose response (AID 1117278); format: functional, cell-based;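 also: gametocytes exposed to compound for 24 hours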
[12] = viability loss in human Jurkat cells – cell-based, luminescence, cytotoxicity control for P. falciparum gametocyte viability project, dose response (AID 1117277); format: functional;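 also: potency reflects loss of cellular ATP meaning fewer viable cells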
[13] = loss of viability in HepG2 cells – cell-based, CellTiter-Glo, cherry-picked, cytotoxicity control for Shn3 inhibitor project, dose response (AID 624134); format: functional
HEK293 [14] = experiment: cells; format: functional, cell-based; conditions: Homo sapiens
[15] = biological target: Nucleotide-binding oligomerization domain-containing protein 2 (Homo sapiens, UniProt Q9HC29); experiment: inhibition of NOD2-driven NF-kB reporter – cell-based, luminescence, uHTS, HEK293 (AID 1566); format: functional
[16] = Shn3 3'UTR reporter signal decrease – cell-based, Clone20 osteoblasts, firefly luciferase, cherry-pick, set 2, Schnurri-3 inhibitor project, dose response (AID 720490); format: functional;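 also: actives lower the luminescence signal as inhibitors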
HEK293 [17] = experiment: cells; format: functional, cell-based; conditions: Homo sapiens; remark: listed apart in the source
HEK293 [18] = experiment: cells; format: functional, cell-based; conditions: Homo sapiens; remark: listed apart in the source
HEK293 [19] = experiment: NOD2 signaling inhibitors in MDP-stimulated cells, cell-based, uHTS, luminescence (AID 2001); format: functional; conditions: Homo sapiens
HEK293 [20] = experiment: inhibition of NOD1-driven NF-kB reporter – cell-based, luminescence, uHTS, primary screen (AID 1578); format: functional; conditions: Homo sapiens
[21] = reduction of Shn3 3'UTR-driven luciferase in osteoblasts – cell-based, Clone20 osteoblasts, firefly luciferase, cherry-picked, dose response (AID 624132); format: functional;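 also: firefly luciferase luminescence from reporter carrying the Shn3 3'UTR in osteoblasts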
INS1 = experiment: INS-1E survival protection against cytokine death – cell-based, luminescence, retest, dose response (AID 449756); format: functional; conditions: Rattus norvegicus, INS1;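 also: cell death triggered by IL-1 beta plus TNF-alpha plus IFN-gamma mixture; protective hits raise ATP signal compared with cytokine alone wells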
[22] = reduced cellular PGC1a acetyl-lysine signal – cell-based, cherry-picked samples, dose response (AID 720514); format: functional;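 also: potency may reflect raised or lowered acetylation signal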
Cytochrome P450 2C9 = Cytochrome P450 2C9 (Homo sapiens, UniProt P11712)
Cytochrome P450 3A4 = Cytochrome P450 3A4 (Homo sapiens, UniProt P08684);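 also: CYP3A4 tested as one member of a cytochrome P450 panel screen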
Cytochrome P450 3A4, sequence (P08684 whole entry): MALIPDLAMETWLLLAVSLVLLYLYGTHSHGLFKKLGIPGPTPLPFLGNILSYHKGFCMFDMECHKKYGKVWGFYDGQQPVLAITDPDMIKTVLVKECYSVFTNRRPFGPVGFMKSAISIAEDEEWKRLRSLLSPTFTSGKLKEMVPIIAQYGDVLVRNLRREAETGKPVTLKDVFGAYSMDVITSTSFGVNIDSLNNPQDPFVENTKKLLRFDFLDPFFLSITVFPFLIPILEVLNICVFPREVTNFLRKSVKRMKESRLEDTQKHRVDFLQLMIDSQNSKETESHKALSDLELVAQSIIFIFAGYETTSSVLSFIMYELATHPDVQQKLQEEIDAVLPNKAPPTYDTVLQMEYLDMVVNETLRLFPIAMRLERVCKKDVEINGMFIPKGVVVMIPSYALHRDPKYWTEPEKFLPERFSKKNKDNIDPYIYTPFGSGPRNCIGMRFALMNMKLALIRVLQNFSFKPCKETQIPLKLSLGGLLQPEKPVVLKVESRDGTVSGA

Voltage-gated inwardly rectifying potassium channel KCNH2, sequence (Q12809 whole entry): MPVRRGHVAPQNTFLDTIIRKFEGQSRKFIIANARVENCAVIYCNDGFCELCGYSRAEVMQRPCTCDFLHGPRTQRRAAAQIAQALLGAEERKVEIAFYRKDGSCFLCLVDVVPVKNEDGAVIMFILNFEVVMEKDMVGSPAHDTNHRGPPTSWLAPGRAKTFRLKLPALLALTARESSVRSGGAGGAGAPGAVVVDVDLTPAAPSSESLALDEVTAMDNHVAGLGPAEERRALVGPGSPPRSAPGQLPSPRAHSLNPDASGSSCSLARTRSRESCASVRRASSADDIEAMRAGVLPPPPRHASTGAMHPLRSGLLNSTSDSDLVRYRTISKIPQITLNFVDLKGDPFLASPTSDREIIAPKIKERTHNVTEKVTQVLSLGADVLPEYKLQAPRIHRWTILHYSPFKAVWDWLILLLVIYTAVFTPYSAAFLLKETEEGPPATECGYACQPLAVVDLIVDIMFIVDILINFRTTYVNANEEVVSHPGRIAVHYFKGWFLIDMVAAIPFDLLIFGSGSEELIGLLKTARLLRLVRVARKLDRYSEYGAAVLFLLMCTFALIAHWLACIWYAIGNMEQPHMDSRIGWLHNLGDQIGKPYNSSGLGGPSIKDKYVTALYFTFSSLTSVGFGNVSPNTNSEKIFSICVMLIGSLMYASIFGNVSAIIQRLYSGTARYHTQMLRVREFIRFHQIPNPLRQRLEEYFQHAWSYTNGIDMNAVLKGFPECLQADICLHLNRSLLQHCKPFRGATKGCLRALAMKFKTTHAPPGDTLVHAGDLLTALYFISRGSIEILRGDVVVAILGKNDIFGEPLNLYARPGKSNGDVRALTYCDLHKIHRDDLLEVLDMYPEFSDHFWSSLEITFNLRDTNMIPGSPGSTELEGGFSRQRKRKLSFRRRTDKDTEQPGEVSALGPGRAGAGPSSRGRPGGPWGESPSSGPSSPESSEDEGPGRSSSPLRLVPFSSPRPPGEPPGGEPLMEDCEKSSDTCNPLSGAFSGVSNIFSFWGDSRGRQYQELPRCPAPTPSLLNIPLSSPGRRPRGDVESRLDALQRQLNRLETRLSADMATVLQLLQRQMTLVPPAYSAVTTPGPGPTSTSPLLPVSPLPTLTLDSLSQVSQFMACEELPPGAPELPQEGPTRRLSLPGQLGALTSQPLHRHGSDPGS
Nucleotide-binding oligomerization domain-containing protein 2, sequence (Q9HC29 whole entry, the tested form may be a part): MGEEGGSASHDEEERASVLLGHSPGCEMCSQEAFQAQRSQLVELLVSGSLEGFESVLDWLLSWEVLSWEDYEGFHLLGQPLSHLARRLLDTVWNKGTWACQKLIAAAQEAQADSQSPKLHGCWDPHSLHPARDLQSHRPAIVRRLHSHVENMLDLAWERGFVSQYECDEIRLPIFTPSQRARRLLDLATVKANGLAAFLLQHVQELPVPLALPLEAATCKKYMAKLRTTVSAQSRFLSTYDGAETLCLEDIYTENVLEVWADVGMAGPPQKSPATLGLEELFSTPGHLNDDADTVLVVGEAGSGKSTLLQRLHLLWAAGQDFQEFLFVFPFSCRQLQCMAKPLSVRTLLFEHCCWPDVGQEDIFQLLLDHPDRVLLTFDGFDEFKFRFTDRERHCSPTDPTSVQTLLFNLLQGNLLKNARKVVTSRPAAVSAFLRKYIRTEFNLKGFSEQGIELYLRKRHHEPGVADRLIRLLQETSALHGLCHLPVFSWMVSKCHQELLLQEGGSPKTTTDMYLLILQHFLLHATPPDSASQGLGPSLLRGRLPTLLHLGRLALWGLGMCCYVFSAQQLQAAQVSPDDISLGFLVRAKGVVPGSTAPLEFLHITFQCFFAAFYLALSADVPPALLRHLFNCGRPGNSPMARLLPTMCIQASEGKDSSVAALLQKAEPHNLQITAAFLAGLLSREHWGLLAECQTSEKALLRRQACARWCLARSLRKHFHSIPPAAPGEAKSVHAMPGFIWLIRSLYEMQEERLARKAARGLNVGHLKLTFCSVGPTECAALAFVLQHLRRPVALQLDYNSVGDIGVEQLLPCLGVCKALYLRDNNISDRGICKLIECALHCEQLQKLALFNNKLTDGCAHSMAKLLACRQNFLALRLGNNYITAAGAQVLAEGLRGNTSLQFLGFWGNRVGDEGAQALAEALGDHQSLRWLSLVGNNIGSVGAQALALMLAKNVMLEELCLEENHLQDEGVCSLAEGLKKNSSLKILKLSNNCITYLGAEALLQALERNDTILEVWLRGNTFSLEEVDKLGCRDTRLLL
Cytochrome P450 2C9, sequence (P11712 whole entry): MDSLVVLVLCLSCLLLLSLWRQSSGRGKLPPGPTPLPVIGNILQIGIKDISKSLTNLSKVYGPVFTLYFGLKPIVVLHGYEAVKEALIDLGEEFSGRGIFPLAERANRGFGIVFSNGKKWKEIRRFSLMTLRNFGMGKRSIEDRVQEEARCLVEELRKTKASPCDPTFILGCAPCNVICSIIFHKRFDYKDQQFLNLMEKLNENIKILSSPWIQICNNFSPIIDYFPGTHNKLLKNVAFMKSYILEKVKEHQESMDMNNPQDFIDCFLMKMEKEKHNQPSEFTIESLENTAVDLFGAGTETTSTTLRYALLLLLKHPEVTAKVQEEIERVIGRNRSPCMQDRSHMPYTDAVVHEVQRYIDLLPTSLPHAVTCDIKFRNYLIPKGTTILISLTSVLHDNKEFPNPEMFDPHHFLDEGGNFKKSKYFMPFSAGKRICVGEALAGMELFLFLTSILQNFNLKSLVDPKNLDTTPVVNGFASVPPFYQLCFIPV
Luciferin 4-monooxygenase, sequence (P08659 whole entry): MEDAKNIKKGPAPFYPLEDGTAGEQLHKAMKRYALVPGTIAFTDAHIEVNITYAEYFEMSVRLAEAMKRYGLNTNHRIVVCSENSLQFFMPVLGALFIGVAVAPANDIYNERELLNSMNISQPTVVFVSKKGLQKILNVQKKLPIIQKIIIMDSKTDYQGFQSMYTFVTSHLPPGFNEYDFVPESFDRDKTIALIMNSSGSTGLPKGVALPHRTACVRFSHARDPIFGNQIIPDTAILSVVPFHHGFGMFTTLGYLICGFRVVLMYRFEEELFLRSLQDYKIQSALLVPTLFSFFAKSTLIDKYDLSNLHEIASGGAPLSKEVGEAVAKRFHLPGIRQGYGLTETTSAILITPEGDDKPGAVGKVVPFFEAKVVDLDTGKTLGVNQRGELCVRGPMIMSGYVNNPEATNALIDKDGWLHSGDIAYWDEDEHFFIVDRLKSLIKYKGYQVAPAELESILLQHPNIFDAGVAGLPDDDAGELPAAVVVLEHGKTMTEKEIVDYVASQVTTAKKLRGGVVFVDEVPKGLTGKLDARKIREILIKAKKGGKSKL
COUP transcription factor 2, sequence (P24468 whole entry): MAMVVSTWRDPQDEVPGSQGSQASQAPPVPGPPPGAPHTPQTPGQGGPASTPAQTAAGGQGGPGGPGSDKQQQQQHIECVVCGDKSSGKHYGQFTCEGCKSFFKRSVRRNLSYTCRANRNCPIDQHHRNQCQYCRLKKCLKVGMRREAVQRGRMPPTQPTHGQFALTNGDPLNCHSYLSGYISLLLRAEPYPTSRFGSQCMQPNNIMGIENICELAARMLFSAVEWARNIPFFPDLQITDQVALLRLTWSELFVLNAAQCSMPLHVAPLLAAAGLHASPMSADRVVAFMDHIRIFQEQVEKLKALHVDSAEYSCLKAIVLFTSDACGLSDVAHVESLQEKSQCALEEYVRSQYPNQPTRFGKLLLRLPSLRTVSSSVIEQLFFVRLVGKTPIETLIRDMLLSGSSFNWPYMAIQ
Paired box protein Pax-8, sequence (Q06710 whole entry): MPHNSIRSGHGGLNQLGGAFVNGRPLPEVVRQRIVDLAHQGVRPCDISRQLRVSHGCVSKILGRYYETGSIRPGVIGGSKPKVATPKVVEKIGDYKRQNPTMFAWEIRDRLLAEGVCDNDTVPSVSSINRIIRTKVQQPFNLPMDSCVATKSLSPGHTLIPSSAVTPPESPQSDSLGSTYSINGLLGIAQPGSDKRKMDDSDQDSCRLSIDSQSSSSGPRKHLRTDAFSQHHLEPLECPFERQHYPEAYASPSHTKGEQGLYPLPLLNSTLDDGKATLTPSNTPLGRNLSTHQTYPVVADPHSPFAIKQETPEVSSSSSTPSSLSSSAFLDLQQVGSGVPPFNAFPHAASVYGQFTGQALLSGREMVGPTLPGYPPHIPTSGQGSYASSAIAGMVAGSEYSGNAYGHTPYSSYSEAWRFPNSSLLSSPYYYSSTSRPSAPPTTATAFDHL

SMILES: CCCc1ccc(C(=O)O/N=C(\N)c2ccccn2)cc1
IC50 [1]: 22.1 µM (inactive) | EC50 [2]: 1.2 µM (active) | IC50 [3]: 27.8 µM (not active) | AC50 (Paired box protein Pax-8): 5.93 µM (active) | EC50 [4]: 0.407 µM (active)

SMILES: CCOc1ccc2nc(N3C(=O)/C(=C/c4ccccc4)NC3=S)sc2c1
EC50 [5]: 3.03 µM (active) | EC50 [6]: 0.44 µM (active) | EC50 [7]: > 150 µM (inconclusive)

IC50 [8]: 44.6 µM (inactive) | IC50 (Beta-galactosidase): > 66.6 µM (inactive)
SMILES: O=C(NC(=S)Nc1ccccc1N1CCCC1)c1ccc([N+](=O)[O-])cc1
EC50 [6]: 3.24 µM (active)

SMILES: Cc1cc(C)nc(NCC(O)CNc2ccccc2Cl)n1 (stereo not drawn)
EC50 [9]: > 20 µM (not active) | EC50 [10]: > 20 µM (not active)

SMILES: Cc1ccc(S(=O)(=O)NCC(=O)N(CC(=O)NC2CCCC2)c2ccc3c(c2)OCCO3)cc1
IC50 [11]: > 109 µM (inactive) | IC50 [12]: > 83.3 µM (inactive)

SMILES: COc1ccc(CC(=O)Nc2ccncc2Cl)cc1
AC50 [13]: 57.3 µM (active) | IC50 (HEK293 [14]): > 20 µM (inactive) | EC50 [15]: 14.9 µM (active) | AC50 [16]: 2.13 µM (active) | IC50 (HEK293 [17]): 14 µM (active) | IC50 (HEK293 [18]): > 20 µM (inactive) | IC50 (HEK293 [19]): 17.8 µM (inactive) | EC50 (HEK293 [20]): 4.73 µM (active) | AC50 [21]: 2.12 µM (active) | AC50 (INS1): 5.67 µM (active)

SMILES: CCc1ccc(C(=O)CN(C#N)c2nc(C)cc(C)n2)cc1
AC50 [22]: 19.3 µM (active) | AC50 (Cytochrome P450 2C9): inconclusive | AC50 (Cytochrome P450 3A4): 25.1 µM (inconclusive)
